The results in this text go back to PubChem BioAssay (NCI).

Some test systems named below: A498 renal; CAKI-1 renal; CCRF-CEM leukemia; DU-145 prostate; HT29 colon; SF-295 CNS; UACC-257 melanoma; SF-268 CNS; SF-539 CNS; SNB-75 CNS; LOX IMVI melanoma.
What all share (experiment): NCI tumour cell line growth inhibition, 48 h

Several values for one entry are separate records, joined by “and”; a condition that tells them apart may be missing. Identical values can stand only once.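 How tested: cells in 96-well plates exposed to compound for 48 hours at five concentrations. Definition used: TGI = concentration required for complete inhibition of growth.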

For the molecule `CC[C@@]1(O)C[C@H](OC2CC(N(C)C)C(OC3CC(O)C(OC4CCC(=O)C(C)O4)C(C)O3)C(C)O2)c2c(cc3c(c2O)C(=O)c2c(O)cccc2C3=O)C1C(=O)OC` (stereo not given in full), the TGI with A498 renal was 0.213 µM; with CAKI-1 renal, 4.09 µM; in the experiment on CCRF-CEM leukemia it was 0.116 µM and 1.02 µM; in the experiment on DU-145 prostate, 0.446 µM; with HT29 colon, 1.42 µM; in the experiment on SF-295 CNS, 1.1 µM and 1.89 µM. The TGI in the experiment on UACC-257 melanoma was 0.202 µM and 0.993 µM.

As for `Nc1nc(SCCNC(=O)CCc2ccc(O)c(I)c2)nc2c1ncn2C1OC(CO)C(O)C1O` (stereo not given), the TGI in the experiment with A498 renal, in the experiment on CCRF-CEM leukemia, in the experiment with HT29 colon, in the experiment on SF-268 CNS, with SF-295 CNS and in the experiment with SF-539 CNS was > 100 µM in each case. Further, the TGI in the experiment on SNB-75 CNS and in the experiment on UACC-257 melanoma was > 100 µM throughout.

In the case of `[C-]#[N+]C(=C\c1ccc(O)cc1)/C(=C/c1ccc(O)cc1)[N+]#[C-]`, the TGI in the experiment on A498 renal was > 24.8 µM; in the experiment on CAKI-1 renal, 5.63 µM; with CCRF-CEM leukemia it was 6.55 µM; in the experiment with DU-145 prostate it was 7.23 µM; with HT29 colon, > 73.8 µM; with LOX IMVI melanoma, 5.16 µM. Moreover, the TGI in the experiment on SF-268 CNS is > 100 µM; in the experiment with SF-295 CNS, > 100 µM; in the experiment with SNB-75 CNS, 6.83 µM; in the experiment on UACC-257 melanoma, 6.98 µM.

As to `O=C1CCCCN1`, the TGI in the experiment on A498 renal is > 52 µM; in the experiment on CAKI-1 renal, > 1120 µM; with CCRF-CEM leukemia, > 1120 µM; in the experiment on HT29 colon it was > 1120 µM; in the experiment on LOX IMVI melanoma, > 1120 µM; with SF-268 CNS, > 1120 µM. Moreover, the TGI in the experiment on SF-295 CNS, with SF-539 CNS, in the experiment with SNB-75 CNS and with UACC-257 melanoma was > 1120 µM each time.

Turning to `C=CCn1c(=O)c(Br)nn(CCOCP(=O)(OCC)OCC)c1=O`, the TGI with A498 renal, in the experiment on CAKI-1 renal, in the experiment on CCRF-CEM leukemia, in the experiment with DU-145 prostate, with LOX IMVI melanoma and with SF-268 CNS was > 100 µM in each case. The TGI with SF-539 CNS, with SNB-75 CNS and in the experiment with UACC-257 melanoma was > 100 µM in each case.

On to `CC(C)CNCCc1ccccn1`, for which the TGI in the experiment with A498 renal, in the experiment on CAKI-1 renal, with CCRF-CEM leukemia, in the experiment on DU-145 prostate, in the experiment with HT29 colon and in the experiment with LOX IMVI melanoma was > 100 µM each time. In addition, the TGI in the experiment with SF-268 CNS, with SF-295 CNS, in the experiment on SNB-75 CNS and in the experiment on UACC-257 melanoma was > 100 µM in each case.

For `O=Cc1ccccc1CCn1c(=O)c2cc3c(=O)n(CCc4ccccc4C=O)c(=O)c3cc2c1=O`, the TGI with A498 renal, with CCRF-CEM leukemia, with HT29 colon, in the experiment with LOX IMVI melanoma, with SF-268 CNS and in the experiment with SF-295 CNS was > 100 µM each time. Also, the TGI in the experiment with SF-539 CNS, in the experiment on SNB-75 CNS and in the experiment with UACC-257 melanoma was > 100 µM in each case.

In the case of `CC(C)C1=CC2=CC[C@@H]3[C@](C)(CCC[C@@]3(C)C(=O)O)[C@H]2CC1`, the TGI with A498 renal was > 100 µM; with CAKI-1 renal, > 100 µM; with CCRF-CEM leukemia, > 100 µM; in the experiment on HT29 colon, 45.9 µM; with LOX IMVI melanoma, > 100 µM; in the experiment on SF-268 CNS it was > 100 µM. Moreover, the TGI in the experiment on SF-295 CNS, with SF-539 CNS, with SNB-75 CNS and in the experiment on UACC-257 melanoma was > 100 µM throughout.

`CN1c2c(nc(N)[nH]c2=O)NCC1CCNc1ccc(C(=O)NC(CCC(=O)O)C(=O)O)cc1` (stereo not given): the TGI was found to be 2820 µM in the experiment on A498 renal; 1290 µM with CAKI-1 renal; 1000 µM with CCRF-CEM leukemia; 2660 µM in the experiment on DU-145 prostate; 1310 µM in the experiment with HT29 colon; 783 µM with LOX IMVI melanoma. The TGI was 2710 µM in the experiment with SF-268 CNS; 2260 µM in the experiment with SF-295 CNS; 2190 µM with SF-539 CNS; 2660 µM in the experiment on SNB-75 CNS; 2360 µM in the experiment with UACC-257 melanoma.

For `CC1=C(SCCO)C(=O)c2ccccc2C1=O`, the TGI in the experiment on A498 renal was 30.6 µM; in the experiment with CAKI-1 renal, 28.8 µM; in the experiment on CCRF-CEM leukemia, > 100 µM; with DU-145 prostate, 29.6 µM; in the experiment with HT29 colon, 38.7 µM; in the experiment on LOX IMVI melanoma it was 24.6 µM. Moreover, the TGI in the experiment with SF-268 CNS worked out at 29.9 µM; in the experiment on SF-295 CNS it was 32.8 µM; in the experiment on SF-539 CNS it was 24.9 µM; in the experiment on SNB-75 CNS, 30.1 µM; with UACC-257 melanoma it was 25.8 µM.

For `c1ccc(SCCc2ccncc2)cc1`, the TGI in the experiment with A498 renal, in the experiment on CAKI-1 renal, with CCRF-CEM leukemia, with DU-145 prostate, in the experiment on HT29 colon and in the experiment on LOX IMVI melanoma was > 100 µM throughout. Further, the TGI with SF-268 CNS, with SF-295 CNS, in the experiment with SF-539 CNS, in the experiment on SNB-75 CNS and in the experiment on UACC-257 melanoma was > 100 µM in each case.

Turning to `CC(=O)OCCCCN1C(=O)CSc2ccccc21`, the TGI in the experiment with A498 renal, in the experiment with CAKI-1 renal, in the experiment with CCRF-CEM leukemia, in the experiment on DU-145 prostate, with LOX IMVI melanoma and in the experiment on SF-295 CNS was > 100 µM in each case. In addition, the TGI in the experiment on SF-539 CNS, in the experiment with SNB-75 CNS and in the experiment with UACC-257 melanoma was > 100 µM throughout.
